In ChEMBL document CHEMBL1697731, “Cheminformatics analysis of assertions mined from literature that describe drug-induced liver injury in different species” (Chem Res Toxicol, 2010):
*1 amine or outer side, *2 acyl side, *3 side chain or, on linkers, in order; H or OH if unused. Where a SMILES comes first, the peptide text is derived from it. Bridges are numbered along the chain shown (N, C = ends). Roman numbers before positions name the chains, in order. [ ]: non-standard residue; d: D form. Actinocin(9to1) = Cc1c2oc3c(C)ccc(C(=O)[*:1])c3nc-2c(C(=O)[*:2])c(N)c1=O; NMeV = CN[C@H](C(=O)O)C(C)C; Sar = CNCC(=O)O

Columns and labels:
Hepatotoxicity [1] = test: Literature-mined compound from Fourches et al multi-species drug-induced liver injury (DILI) dataset, effect in non-rodents
Hepatotoxicity [2] = test: Literature-mined compound from Fourches et al multi-species drug-induced liver injury (DILI) dataset, effect in humans; conditions: human
Hepatotoxicity [3] = test: Literature-mined compound from Fourches et al multi-species drug-induced liver injury (DILI) dataset, effect in rodents; conditions: rodentia

SMILES	Hepatotoxicity (Hepatotoxicity [1])	Hepatotoxicity (Hepatotoxicity [2])	Hepatotoxicity (Hepatotoxicity [3])	Hepatotoxicity (Hepatotoxicity [1]; Liver)	Hepatotoxicity (Hepatotoxicity [2]; Liver)	Hepatotoxicity (Hepatotoxicity [3]; Liver)
CCC(C(=O)O)C1(O)CCCCC1 (stereo not given) [CYCLOBUTYROL]	no drug-induced liver injury reported	no drug-induced liver injury reported	drug-induced liver injury reported	–	–	–
CC1=C2C[C@H]3[C@@H](CC=C4C[C@@H](O)CC[C@@]43C)[C@@H]2CC[C@]12O[C@@H]1C[C@H](C)CN[C@H]1[C@H]2C [CYCLOPAMINE]	no drug-induced liver injury reported	drug-induced liver injury reported	no drug-induced liver injury reported	–	–	–
O=P1(N(CCCl)CCCl)NCCCO1 (stereo not given) [CYCLOPHOSPHAMIDE ANHYDROUS]	–	–	–	no drug-induced liver injury reported	drug-induced liver injury reported	drug-induced liver injury reported
O=C(/C=C/c1ccc(O)c(O)c1)O[C@@H]1C[C@@](OC(=O)/C=C/c2ccc(O)c(O)c2)(C(=O)O)C[C@@H](O)[C@@H]1O [CYNARIN]	no drug-induced liver injury reported	no drug-induced liver injury reported	drug-induced liver injury reported	–	–	–
CN1CCC(=C2c3ccccc3C=Cc3ccccc32)CC1 [CYPROHEPTADINE]	no drug-induced liver injury reported	drug-induced liver injury reported	drug-induced liver injury reported	–	–	–
CC(=O)O[C@]1(C(C)=O)CC[C@H]2[C@@H]3C=C(Cl)C4=CC(=O)[C@@H]5C[C@@H]5[C@]4(C)[C@H]3CC[C@@]21C [CYPROTERONE ACETATE]	no drug-induced liver injury reported	drug-induced liver injury reported	drug-induced liver injury reported	–	–	–
Nc1ccn([C@@H]2O[C@H](CO)[C@@H](O)[C@@H]2O)c(=O)n1 [CYTARABINE]	–	–	–	no drug-induced liver injury reported	drug-induced liver injury reported	drug-induced liver injury reported
CN(C)/N=N/c1[nH]cnc1C(N)=O [DACARBAZINE]	no drug-induced liver injury reported	drug-induced liver injury reported	no drug-induced liver injury reported	–	–	–
Cc1c2oc3c(C)ccc(C(=O)N[C@@H]4C(=O)N[C@H](C(C)C)C(=O)N5CCC[C@H]5C(=O)N(C)CC(=O)N(C)[C@@H](C(C)C)C(=O)O[C@@H]4C)c3nc-2c(C(=O)N[C@@H]2C(=O)N[C@H](C(C)C)C(=O)N3CCC[C@H]3C(=O)N(C)CC(=O)N(C)[C@@H](C(C)C)C(=O)O[C@@H]2C)c(N)c1=O [DACTINOMYCIN] (I: T[dV]P[Sar][NMeV] / II: T[dV]P[Sar][NMeV]; ester I:1-I:C, II:1-II:C; linker I:N-II:N via Actinocin(9to1))	drug-induced liver injury reported	drug-induced liver injury reported	drug-induced liver injury reported	–	–	–
C#C[C@]1(O)CC[C@H]2[C@@H]3CCC4=Cc5oncc5C[C@]4(C)[C@H]3CC[C@@]21C [DANAZOL]	no drug-induced liver injury reported	drug-induced liver injury reported	no drug-induced liver injury reported	–	–	–
O=C1c2cccc(O)c2C(=O)c2c(O)cccc21 [DANTHRON]	no drug-induced liver injury reported	no drug-induced liver injury reported	drug-induced liver injury reported	–	–	–
O=C1CN(/N=C/c2ccc(-c3ccc([N+](=O)[O-])cc3)o2)C(=O)[N-]1.[Na+] [DANTROLENE SODIUM]	no drug-induced liver injury reported	no drug-induced liver injury reported	drug-induced liver injury reported	–	–	–
Nc1ccc(S(=O)(=O)c2ccc(N)cc2)cc1 [DAPSONE]	–	–	–	no drug-induced liver injury reported	drug-induced liver injury reported	no drug-induced liver injury reported
COc1cccc2c1C(=O)c1c(O)c3c(c(O)c1C2=O)C[C@@](O)(C(C)=O)C[C@@H]3O[C@H]1C[C@H](N)[C@H](O)[C@H](C)O1 [DAUNORUBICIN]	no drug-induced liver injury reported	drug-induced liver injury reported	drug-induced liver injury reported	–	–	–
Nc1ncn([C@H]2C[C@H](O)[C@@H](CO)O2)c(=O)n1 [DECITABINE]	no drug-induced liver injury reported	drug-induced liver injury reported	no drug-induced liver injury reported	–	–	–
O=C(O)c1ccc(-n2nc(-c3ccccc3O)nc2-c2ccccc2O)cc1 [DEFERASIROX]	no drug-induced liver injury reported	drug-induced liver injury reported	no drug-induced liver injury reported	–	–	–
CC(=O)N(O)CCCCCNC(=O)CCC(=O)N(O)CCCCCNC(=O)CCC(=O)N(O)CCCCCN [DEFEROXAMINE]	drug-induced liver injury reported	drug-induced liver injury reported	drug-induced liver injury reported	–	–	–
C[C@H](CCC(=O)O)[C@H]1CC[C@H]2[C@@H]3C(=O)C[C@@H]4CC(=O)CC[C@]4(C)[C@H]3CC(=O)[C@]12C [DEHYDROCHOLIC ACID]	no drug-induced liver injury reported	no drug-induced liver injury reported	drug-induced liver injury reported	–	–	–

SMILES	Hepatotoxicity (Hepatotoxicity [1])	Hepatotoxicity (Hepatotoxicity [2])	Hepatotoxicity (Hepatotoxicity [3])	Hepatotoxicity (Hepatotoxicity [1]; Liver)	Hepatotoxicity (Hepatotoxicity [2]; Liver)	Hepatotoxicity (Hepatotoxicity [3]; Liver)
CCC1=C(C[C@H]2NCCc3cc(OC)c(OC)cc32)C[C@H]2c3cc(OC)c(OC)cc3CCN2C1 [DEHYDROEMETINE]	no drug-induced liver injury reported	no drug-induced liver injury reported	drug-induced liver injury reported	–	–	–
C#C[C@]1(O)CC[C@H]2[C@@H]3CCC4=CCCC[C@@H]4[C@H]3C(=C)C[C@@]21CC [DESOGESTREL]	no drug-induced liver injury reported	drug-induced liver injury reported	no drug-induced liver injury reported	–	–	–
CN1C(=O)[C@@H](NC(=O)c2cc3ccccc3[nH]2)N=C(c2ccccc2)c2ccccc21 [DEVAZEPIDE]	no drug-induced liver injury reported	no drug-induced liver injury reported	drug-induced liver injury reported	–	–	–
C[C@@H]1C[C@H]2[C@@H]3CCC4=CC(=O)C=C[C@]4(C)[C@@]3(F)[C@@H](O)C[C@]2(C)[C@@]1(O)C(=O)CO [DEXAMETHASONE]	drug-induced liver injury reported	drug-induced liver injury reported	drug-induced liver injury reported	–	–	–
CCN[C@@H](C)Cc1cccc(C(F)(F)F)c1 [DEXFENFLURAMINE]	no drug-induced liver injury reported	drug-induced liver injury reported	drug-induced liver injury reported	–	–	–
C[C@@H](CN1CC(=O)NC(=O)C1)N1CC(=O)NC(=O)C1 [DEXRAZOXANE]	no drug-induced liver injury reported	no drug-induced liver injury reported	drug-induced liver injury reported	–	–	–
O=C[C@H](O)[C@@H](O)[C@H](O)[C@H](O)CO[C@H]1O[C@H](CO[C@H]2O[C@H](CO)[C@@H](O)[C@H](O)[C@H]2O)[C@@H](O)[C@H](O)[C@H]1O [DEXTRAN]	drug-induced liver injury reported	no drug-induced liver injury reported	drug-induced liver injury reported	–	–	–
C[C@H](N)Cc1ccccc1 [DEXTROAMPHETAMINE]	no drug-induced liver injury reported	no drug-induced liver injury reported	drug-induced liver injury reported	–	–	–
COc1ccc2c(c1)[C@]13CCCC[C@@H]1[C@H](C2)N(C)CC3 [DEXTROMETHORPHAN]	no drug-induced liver injury reported	drug-induced liver injury reported	no drug-induced liver injury reported	–	–	–
OC[C@H]1OC(O)[C@H](O)[C@@H](O)[C@@H]1O (stereo not given in full) [DEXTROSE]	drug-induced liver injury reported	drug-induced liver injury reported	drug-induced liver injury reported	–	–	–
CC(=O)Nc1c(I)c(NC(C)=O)c(I)c(C(=O)[O-])c1I.[Na+] [DIATRIZOATE SODIUM]	no drug-induced liver injury reported	no drug-induced liver injury reported	drug-induced liver injury reported	–	–	–
CN1C(=O)CN=C(c2ccccc2)c2cc(Cl)ccc21 [DIAZEPAM]	–	–	–	drug-induced liver injury reported	drug-induced liver injury reported	drug-induced liver injury reported
CC1=NS(=O)(=O)c2cc(Cl)ccc2N1 [DIAZOXIDE]	no drug-induced liver injury reported	drug-induced liver injury reported	drug-induced liver injury reported	–	–	–
O=c1oc2ccccc2c(O)c1Cc1c(O)c2ccccc2oc1=O [DICUMAROL]	no drug-induced liver injury reported	drug-induced liver injury reported	drug-induced liver injury reported	–	–	–
O=c1[nH]cnc2c1ncn2[C@H]1CC[C@@H](CO)O1 [DIDANOSINE]	no drug-induced liver injury reported	drug-induced liver injury reported	drug-induced liver injury reported	–	–	–
C[C@]12CCC3=C4CCC(=O)C=C4CC[C@H]3[C@@H]1CC[C@@]2(O)CC#N [DIENOGEST]	no drug-induced liver injury reported	no drug-induced liver injury reported	drug-induced liver injury reported	–	–	–
CC/C(=C(/CC)c1ccc(O)cc1)c1ccc(O)cc1 [DIETHYLSTILBESTROL]	drug-induced liver injury reported	drug-induced liver injury reported	drug-induced liver injury reported	–	–	–
